Source: article PMC1903359, “Engineering of PA-IIL lectin from Pseudomonas aeruginosa – Unravelling the role of the specificity loop for sugar preference” (BMC Structural Biology, 2007)
pKd: −log10 of the molar value. Where two headings read alike, the source gives them in different places.

What was measured:
[1] = biological target: PA-IIL lectin from Pseudomonas aeruginosa, mutant G24N (Pseudomonas aeruginosa); assay: crystal structure; mutants co-crystallised with fucose (hanging drop), soaked 24 h in 10 mM Me-α-D-Man or Me-α-L-Fuc; tetramer in the asymmetric unit
[2] = biological target: PA-IIL lectin from Pseudomonas aeruginosa, mutant S22A (Pseudomonas aeruginosa); assay: as above
PA-IIL wild type = settings: cited from earlier work
PA-IIL S22A = PA-IIL S22A (Pseudomonas aeruginosa, UniProt Q9HYN5, S23A); assay: ITC binding of monosaccharides to PA-IIL mutant S22A; settings: for -TΔS: calculated from ΔG and ΔH
PA-IIL S23A = PA-IIL S23A (Pseudomonas aeruginosa, UniProt Q9HYN5, S24A); assay: ITC binding of monosaccharides to PA-IIL mutant S23A; settings: ITC at 25°C
PA-IIL G24N = PA-IIL G24N (Pseudomonas aeruginosa, UniProt Q9HYN5, G25N); assay: ITC binding of monosaccharides to PA-IIL mutant G24N; settings: for ΔH / -TΔS: ITC at 25°C; for -TΔS: calculated from ΔG and ΔH
RS-IIL = tested on: RS-IIL; set-up: method as in PMID 16768446; settings: cited from earlier work
[3] = biological target: PA-IIL lectin from Pseudomonas aeruginosa, mutant S23A (Pseudomonas aeruginosa); assay: crystal structure; mutants co-crystallised with fucose (hanging drop), soaked 24 h in 10 mM Me-α-D-Man or Me-α-L-Fuc; tetramer in the asymmetric unit
[4] = PA-IIL wild type, ITC at 25°C, ref Sabin, C. et al, 2006 [14]
[5] = ITC at 25°C, comparison data, Figure 7 gives ref 18

PA-IIL lectin from Pseudomonas aeruginosa, mutant G24N (natural protein)
stoichiometry N [1]: 4

PA-IIL lectin from Pseudomonas aeruginosa, mutant S22A (natural protein)
stoichiometry N [2]: 4

CO[C@@H]1O[C@@H](CO)[C@@H](O)[C@@H](O)[C@@H]1O [Me-α-L-Gal, methyl α-L-galactopyranoside]
-TΔS (PA-IIL wild type; [4]): -2.3 (± 0.7) kJ/mol | KA (PA-IIL wild type; [4]): 85.0 (± 5.0) ×10^4M^-1 | pKd (PA-IIL wild type; [4]): 5.93 | ΔH (PA-IIL wild type; [4]): -31.5 (± 0.6) kJ/mol | ΔH (PA-IIL S22A; S22A, ITC at 25°C): -19.2 (± 0.2) kJ/mol | -TΔS (PA-IIL S22A; S22A, ITC at 25°C): -8.3 (± 0.3) kJ/mol | ΔH (PA-IIL S23A): -26.8 (± 1.7) kJ/mol | ΔH (PA-IIL G24N): -18.7 (± 0.3) kJ/mol | -TΔS (PA-IIL G24N): -15.0 (± 0.9) kJ/mol

CO[C@H]1O[C@H](CO)[C@@H](O)[C@H](O)[C@@H]1O [Me-β-D-Man, methyl α-D-mannopyranoside]
-TΔS (RS-IIL; [5]): -13.0 (± 0.2) kJ/mol | KA (RS-IIL; [5]): 438 (± 2.0) ×10^4M^-1 | pKd (RS-IIL; [5]): 6.64 | ΔG (RS-IIL; [5]): -37.9 (± 0.1) kJ/mol | times higher affinity of the mutant compared to the wild type protein (PA-IIL S22A; S22A versus wild type PA-IIL): 25 times | total difference in free energy, mutant versus wild type (PA-IIL S22A; S22A versus wild type PA-IIL): -1.91 kcal/mol | -TΔS (PA-IIL S22A; S22A, ITC at 25°C): -7.4 (± 0.7) kJ/mol | favourable entropic contribution TΔS (PA-IIL S22A; S22A, sign as TΔS): 1.77 kcal/mol | ΔH (PA-IIL S23A): -16.7 (± 2.3) kJ/mol | KA (PA-IIL S23A; 0.1 M Tris-HCl, 30 μM CaCl2, pH 7.5): 1.91 (± 0.33) ×10^4M^-1 | -TΔS (PA-IIL S23A; calculated from ΔG and ΔH): -7.7 (± 2.7) kJ/mol | ΔH (PA-IIL G24N): -27.1 (± 0.8) kJ/mol | -TΔS (PA-IIL G24N): 2.1 (± 0.9) kJ/mol | entropic contribution as share of the total Gibbs energy change (PA-IIL G24N; unfavourable entropic contribution): 8%

CO[C@@H]1O[C@@H](C)[C@@H](O)[C@@H](O)[C@@H]1O [Me-α-L-Fuc, methyl α-L-fucopyranoside]
-TΔS (PA-IIL wild type; [4]): 4.9 (± 1.0) kJ/mol | KA (PA-IIL wild type; [4]): 235 (± 8.0) ×10^4M^-1 | pKd (PA-IIL wild type; [4]): 6.37 | ΔG (PA-IIL wild type; [4]): -36.4 (± 0.1) kJ/mol | ΔH (PA-IIL wild type; [4]): -41.3 (± 1.0) kJ/mol | entropic contribution TΔS (PA-IIL wild type; native (wild type) PA-IIL, sign as TΔS): -1.17 kcal/mol | KA (RS-IIL; footnote b: value < 10^4 M^-1): < 10000 M⁻¹ | pKd (RS-IIL; footnote b): < 4.00

PA-IIL lectin from Pseudomonas aeruginosa, mutant S23A (natural protein)
stoichiometry N [3]: 4
